The source made the active and inactive calls. The rule behind the calls is not given here.
What was measured:
[1] = target: T1, Serine/threonine-protein kinase PLK1 (Homo sapiens, UniProt P53350); assay: Binding affinity to recombinant PLK1 (unknown origin) assessed as dissociation constant by SPR analysis
A549/CDDP [2] = assay: Induction of cell cycle arrest at G2/M phase in human A549/DDP cells at 0 to 15 uM measured after 48 hrs by RNase A/PI staining based flow cytometry analysis; type: functional; details: dose 0-15 µM
MCF7 = assay: Anticancer activity against human MCF7 cells assessed as inhibition of cell growth incubated for 48 hrs by crystal violet staining based analysis; type: functional; details: MCF7, 48 h
[3] = Toxicity in male BALB/c nude mouse xenografted with human gefitinib resistant NCI-H1975 cells assessed as lung damage at 30 mg/kg, po administered every 2 days for 20 days and measured 3 times a week by H and E staining based analysis; type: organism-based; details: in vivo, 480 h, time 20 day
[4] = target: T1, Serine/threonine-protein kinase PLK1; assay: Binding affinity to recombinant PLK1 (unknown origin) assessed as signal attenuation at 200 uM by NMR analysis
[5] = target: T1, Serine/threonine-protein kinase PLK1; assay: Binding affinity to PLK1 in human A549/DDP intact cells assessed as thermal stabilization at 3 uM at 44 to 64 degreeC incubated for 2 hrs by CETSA; type: cell-based
[6] = Toxicity in male BALB/c nude mouse xenografted with human gefitinib resistant NCI-H1975 cells assessed as reduction in body weight at 30 mg/kg, po administered every 2 days for 20 days and measured 3 times a week; type: organism-based; details: in vivo, 480 h, time 20 day
A549/CDDP [7] = assay: Anticancer activity against human A549/DDP cells assessed as inhibition of cell growth incubated for 48 hrs by crystal violet staining based analysis; type: functional
[8] = target: T1, Serine/threonine-protein kinase PLK1; assay: Inhibition of PLK1 in human A549/DDP cells assessed as reduction in PLK1 phosphorylation measured after 48 hrs by Western blot analysis; type: cell-based
[9] = target: T1, Serine/threonine-protein kinase PLK1; assay: Inhibition of PLK1 in human A549/DDP cells assessed as reduction in protein abundance measured after 48 hrs by Western blot analysis; type: cell-based
[10] = Toxicity in male BALB/c nude mouse xenografted with human A549/DDP cells assessed as change in lung index at 30 to 50 mg/kg, ip administered every 2 days for 32 days; type: organism-based, A549/CDDP; details: in vivo, 768 h, dose 30-50 mg/kg, time 32 day
[11] = target: T1, Serine/threonine-protein kinase PLK1; assay: Binding affinity to FLAG-tagged PLK1 kinase region (unknown origin) transfected in human A549 cells at 10 uM incubated for 1 hr by coimmunoprecipitation-MS analysis; type: cell-based
A549/CDDP [12] = assay: Disruption of redox homeostasis in human A549/DDP cells assessed as reduction in GSH level at 0 to 9 uM measured after 48 hrs; type: functional, cell-based; details: dose 0-9 µM
[13] = Toxicity in male BALB/c nude mouse xenografted with human A549/DDP cells assessed as liver damage at 30 to 50 mg/kg, ip administered every 2 days for 32 days by H and E staining based analysis; type: organism-based, A549/CDDP; details: in vivo, 768 h, dose 30-50 mg/kg, time 32 day
SK-OV-3 = assay: Anticancer activity against human SK-OV-3 cells assessed as inhibition of cell growth incubated for 48 hrs by crystal violet staining based analysis; type: functional; details: SK-OV-3, 48 h
A549/CDDP [14] = assay: Effect on p21 protein expression in human A549/DDP cells assessed as effect on protein abundance at 0 to 6 uM measured after 48 hrs by Western blot analysis; type: functional, cell-based; details: dose 0-6 µM
[15] = Antitumor activity against human gefitinib resistant NCI-H1975 cells xenografted in male BALB/c nude mouse assessed as inhibition of tumor growth at 30 mg/kg, po administered every 2 days for 20 days and measured 3 times a week relative to control; type: functional; details: gefitinib resistant NCI-H1975 cell, 480 h, time 20 day, read-out: TGI
[16] = Toxicity in male BALB/c nude mouse xenografted with human A549/DDP cells assessed as change in heart index at 30 mg/kg, ip administered every 2 days for 32 days; type: organism-based, A549/CDDP; details: in vivo, 768 h, time 32 day
T-24 = assay: Anticancer activity against human T24 cells assessed as inhibition of cell growth incubated for 48 hrs by crystal violet staining based analysis; type: functional; details: T-24, 48 h
A549/CDDP [17] = assay: Effect on CDK2 protein expression in human A549/DDP cells assessed as effect on protein abundance at 0 to 6 uM measured after 48 hrs by Western blot analysis; type: functional, cell-based; details: dose 0-6 µM
[18] = Antiproliferative activity against human gefitinib resistant NCI-H1975 cells assessed as inhibition of cell growth incubated for 48 hrs by crystal violet staining based analysis; type: functional
A549/CDDP [19] = assay: Antitumor activity against human A549/DDP cells assessed as male BALB/c nude mouse assessed as tumor growth inhibition at 50 mg/kg, ip administered every 2 days for 32 days and measured 3 times a week relative to control; type: functional; details: 768 h, time 32 day, read-out: TGI
[20] = Binding affinity to cysteine in PBS assessed as increase in fluorogenic response at 5 uM by UV lamp irradiation/fluorescence spectrophotometer
A549 = assay: Induction of mitotic catastrophe in human A549 cells assessed as reduction in PRC1 recruitment by PLK1 in anaphase at 1.5 to 3 uM measured after 48 hrs by immunostaining based laser confocal microscopic analysis; type: functional, cell-based; details: dose 1.5-3 µM
[21] = Toxicity in male BALB/c nude mouse xenografted with human A549/DDP cells assessed as change in liver index at 30 to 50 mg/kg, ip administered every 2 days for 32 days; type: organism-based, A549/CDDP; details: in vivo, 768 h, dose 30-50 mg/kg, time 32 day
[22] = GSH reactivity in human A549/DDP cells assessed as increase in fluorescence intensity measured after 48 hrs; type: ADME, cell-based; details: dose 0-9 µM
[23] = GSH reactivity of compound in PBS assessed as increase in fluorogenic response at 0 to 800 uM measured after 60 mins by fluorescence spectrophotometer; type: physicochemical; details: buffer, 1 h, dose 0-800 µM
[24] = Toxicity in male BALB/c nude mouse xenografted with human A549/DDP cells assessed as reduction in body weight at 30 to 50 mg/kg, ip administered every 2 days for 32 days and measured 3 times a week; type: organism-based, A549/CDDP; details: in vivo, 768 h, dose 30-50 mg/kg, time 32 day

T1 sequence (P53350 whole entry): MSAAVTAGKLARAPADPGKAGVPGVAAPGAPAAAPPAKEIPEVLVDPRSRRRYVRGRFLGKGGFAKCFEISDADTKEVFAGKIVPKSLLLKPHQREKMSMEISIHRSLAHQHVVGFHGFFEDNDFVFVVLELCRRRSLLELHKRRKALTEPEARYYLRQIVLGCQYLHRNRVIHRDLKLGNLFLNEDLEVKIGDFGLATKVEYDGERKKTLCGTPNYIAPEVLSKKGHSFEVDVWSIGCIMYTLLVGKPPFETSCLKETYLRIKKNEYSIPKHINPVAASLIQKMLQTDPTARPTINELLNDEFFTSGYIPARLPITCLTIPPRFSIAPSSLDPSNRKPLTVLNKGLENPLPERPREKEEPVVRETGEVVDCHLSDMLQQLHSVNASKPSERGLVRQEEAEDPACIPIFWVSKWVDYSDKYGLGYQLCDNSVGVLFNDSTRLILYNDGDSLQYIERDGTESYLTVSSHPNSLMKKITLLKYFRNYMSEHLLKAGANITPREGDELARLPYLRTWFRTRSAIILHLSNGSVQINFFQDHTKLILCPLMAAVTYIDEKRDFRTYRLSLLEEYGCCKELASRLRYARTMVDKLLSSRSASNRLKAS

CN(C)CCN1C(=O)c2cccc3c(S(=O)(=O)NCc4ccc(F)cc4)ccc(c23)C1=O
Kd [1]: 290 nM
Activity (A549/CDDP [2]): Active
IC50 (MCF7): 6540 nM
Activity [3]: Non-Toxic
Activity [4]: Active
Activity [5]: Active
Activity [6]: Non-Toxic
IC50 (A549/CDDP [7]): 2650 nM
inhibition [8]: Active
inhibition [9]: Active
Activity [10]: Non-Toxic
Activity [11]: inactive
Activity (A549/CDDP [12]): Active
Activity [13]: Non-Toxic
IC50 (SK-OV-3): 2840 nM
Activity (A549/CDDP [14]): Active
inhibition in vivo at 30 mg/kg [15]: 44%
Activity [16]: Toxic
IC50 (T-24): 2900 nM
Activity (A549/CDDP [17]): Active
IC50 [18]: 7830 nM
inhibition in vivo at 50 mg/kg (A549/CDDP [19]): 62%
Activity [20]: inactive
Activity (A549): Active
Activity [21]: Non-Toxic
Drug metabolism [22]: Metabolite_Detected
Drug metabolism [23]: Metabolite_Detected
Activity [24]: Non-Toxic
